Data published in patent US8361711B2, “Tools and methods useful in characterising the immunotoxic activity of xenobiotic substances” (National Institute of Public Health and the Environment, …, priority 2004, dated 2013).
Where a name gives a salt, the structure may show the parent alone.

How the values were obtained:
[1] = test system: IL-4 promoter dEGFP reporter, EL/p2-5′IL4-dEGFP/2 (EL4); experiment: Prototype cell chip, flow cytometry, IL-4 clone; type: cell-based, mouse
Method: (§1) Samples were analyzed in an EPICS® XL-MCL Coulter flow cytometer with Expo v.2 Analysis Software/Expo32 Analysis Software (Applied Cytometry Systems, Sheffield, UK). or any other suitable flow cytometer. Viable and dead cells were gated separately and results were determined based on fluorescence associated with viable cells only. Regions were set in control cells and the same regions were used in induction controls and chemically challenged cells. Percent positive cells and fluorescence intensity were noted and used in further calculations.
(§2) Index numbers were calculated from the median fluorescence intensity of viable cells. Cells incubated in the absence or presence of ionomycin/PMA were analysed separately. Each clone incubated with or without ionomycin/PMA, but without further chemicals/compounds was defined as index number=1, and the index numbers for the other exposures were calculated from this. Experiments with the same exposures were pooled to perform statistical analysis, using SigmaStat 2.03 statistical analysis software (SPSS Inc., Chicago, Ill. USA).
(§3) One way ANOVAs (one way analysis of variance) were performed. In cases where normality failed, we used Kruskal-Wallis One Way Analysis of Variance on Ranks. If the differences between groups were statistically significant (p<0.05), we continued with tests for multiple comparisons. In normally distributed data we used Bonferroni t-test and multiple comparisons versus the control. The control was chosen to be the sample incubated in the presence or absence of ionomycin/PMA only. When normality failed we used […] for multiple comparisons versus the control.
(§4) The following cell lines: EL/pCA-dEGFP/9, EL/p1-5′IL2-dEGFP/6, EL/p2-5′ IL4-dEGFP/2, EL/p1-5′IFNγ-dEGFP/3, and EL/p2-5′IL10-dEGFP/5, obtained by transfection with the DNA constructs containing promoter region derived from β-actin, IL2, IL4, INF-γ, and IL10 were employed to design the prototype cell chip. The prototype cell chip was used to test the activity of different substances.

[2] = test system: IFN-γ promoter dEGFP reporter, EL/p1-5′IFNγ-dEGFP/3 (EL4); experiment: Prototype cell chip, flow cytometry, IFN-γ clone; type: cell-based, mouse
Method: as §1, §2, §3, §4

[3] = test system: cell lines developed in the project; experiment: Cytotoxicity (cell viability) testing, LDH release; details: for concentration which led to 10% cytotoxicity: highest concentration used on the cell chip
Method: The basic cytotoxicty assay employed was LDH release. Several cytotoxicity assays were performed independently in two laboratories. […] In addition, the cytotoxicity associated with the solvent was also tested to eliminate the possibility of interference in the test outcome.
Cells were plated in 24 well microtiter plates at a density of 0.5×10^6 cells/mL and with a final volume of 1.5 mL/well. Two controls were included for each cell line, in each experiment.

[4] = test system: β-actin promoter dEGFP reporter, EL/pCA-dEGFP/9 (EL4); experiment: Prototype cell chip, flow cytometry, control clone; type: cell-based
Method: as §1, §2, §3, §4

[5] = test system: IL-2 promoter dEGFP reporter, EL/p1-5′IL2-dEGFP/6 (EL4); experiment: Prototype cell chip, flow cytometry, IL-2 clone; type: cell-based, mouse
Method: as §1, §2, §3, §4

[6] = test system: IL-10 promoter dEGFP reporter, EL/p2-5′IL10-dEGFP/5 (EL4); experiment: Prototype cell chip, flow cytometry, IL-10 clone; type: cell-based
Method: as §1, §2, §3, §4

[7] = test system: IL-2 fused to a stabile form of EGFP; experiment: Clones with IL-2 regulatory elements fused to a stabile form of EGFP; type: cell-based, mouse
Method: as §1
as §2, with “this.” for “this. Experiments with the same exposures were pooled to perform statistical analysis, using SigmaStat 2.03 statistical analysis software (SPSS Inc., Chicago, Ill. USA).”
as §3

[8] = test system: IFN-γ fused to a stabile form of EGFP; experiment: Clones with IFN-γ regulatory elements fused to a stabile form of EGFP; type: cell-based, mouse
Method: as §1
as §2, with “this.” for “this. Experiments with the same exposures were pooled to perform statistical analysis, using SigmaStat 2.03 statistical analysis software (SPSS Inc., Chicago, Ill. USA).”
as §3

[9] = test system: IL-2 reporter cells EL/p1-5′IL2-EGFP/3 and EL/p1-5′IL2-dEGFP/6 (EL4); experiment: Preliminary test of IL-2 reporter cells (FACS, fluorescence microscope, Fluorostar); type: cell-based, mouse
[10] = test system: IFNγ; experiment: RT-PCR of endogenous cytokine expression in activated reporter cell lines; type: cell-based
Method: (§5) In order to correlate the GFP expression data with effects on the expression of endogenous cytokine mRNA, RT-PCR analysis was performed. Non-transfected EL4 and BW5147.3 cells were activated with TPA/ionomycin or anti-CD3 and RNA was prepared. Following cDNA synthesis PCR was performed to detect expression of IL-2, IFNγ, and GAPDH (control). The results generally agree with the GFP expression data. In BW5147.3 cells neither IL-2, nor IFNγ mRNA, could be detected in non-induced cells or after activation. In EL4 cells, IL-2 and IFNγ expression could be induced by TPA/ionomycin, but not anti-CD3.
(§6) For EL4 derived cells basal GFP expression was not affected following treatment with any of the above chemicals. […] This inhibitory effect of Cyclosporine was observed independently in all three laboratories performing such experiments. Furthermore, this inhibition of EGFP expression was detected with all three techniques emplyed for EGFP measurements (i.e. FACS, fluorescence microscope, and Fluorostar).

[11] = test system: IL-2; experiment: as above; type: cell-based
Method: as §5, §6

[12] = test system: BW5147.3 derived GFP transfected cell clones; experiment: BW5147.3 derived GFP transfected cell clones, GFP expression; type: cell-based
Text: BW5147.3 derived GFP transfected cell clones have been also used to test the effects of immunomodulatory compounds.

[13] = test system: J/p4-5′IL1β-dEGFP/4 reporter cell line; type: cell-based
[14] = test system: IL-1β promoter dEGFP reporter, J/p4-5′IL1β-dEGFP/4 cells; type: cell-based, mouse
[15] = presence of ionomycin/PMA, highest concentration, 24 h
[16] = absence of ionomycin/PMA, highest concentration, 24 h
[17] = presence of ionomycin/PMA, all tested concentrations, 24 h
[18] = presence of ionomycin/PMA, all tested concentrations
[19] = absence of ionomycin/PMA, highest concentration
[20] = absence of ionomycin/PMA, all tested concentrations
[21] = presence of ionomycin/PMA, highest concentration
[22] = presence of ionomycin/PMA, 1:10 dilution
[23] = presence of ionomycin/PMA, 1:10 dilution, 24 h
[24] = presence of ionomycin/PMA, 1:100 dilution
[25] = absence of ionomycin/PMA, 1:10 dilution, 24 h

Cc1ccc(N=C=O)cc1N=C=O [TDI, Tolylene 2,4-diisocyanate]
IL-4 clone fluorescence vs control [1, 15]: statistically significant increase | IFN-γ clone fluorescence vs control [2, 16]: significant induction | concentration which led to 10% cytotoxicity [3]: 500 µM

O=[N+]([O-])c1ccc(Cl)c([N+](=O)[O-])c1 [DNCB, 1-Chloro-2,4-dinitrobenzene]
actin clone fluorescence vs control [4, 16]: increased expression | actin clone fluorescence vs control [4, 17]: no statistically significant changes were found | IL-2 clone fluorescence vs control [5, 16]: increased expression | IL-2 clone fluorescence vs control [5, 17]: no statistically significant changes were found | IL-4 clone fluorescence vs control [1, 16]: increased expression | IL-4 clone fluorescence vs control [1, 17]: no statistically significant changes were found | IL-10 clone fluorescence vs control [6, 17]: no statistically significant changes were found | IFN-γ clone fluorescence vs control [2, 16]: increased expression | IFN-γ clone fluorescence vs control [2, 17]: no statistically significant changes were found | IL-2 expression, stabile EGFP clone [7, 18]: failed to alter expression | IFN-γ expression, stabile EGFP clone [8, 19]: apparently dose-dependent increase reaching statistical significance at the highest concentration | IFN-γ expression, stabile EGFP clone [8, 18]: failed to alter expression | concentration which led to 10% cytotoxicity [3]: 10 µM

CCCCCCCCCCCCOS(=O)(=O)[O-].[Na+] [SDS, Sodium Dodecyl Sulphate]
IL-2 expression, stabile EGFP clone [7, 20]: exposure effects were not observed | IL-2 expression, stabile EGFP clone [7, 21]: apparently dose-dependent reduction | IFN-γ expression, stabile EGFP clone [8, 20]: exposure effects were not observed | IFN-γ expression, stabile EGFP clone [8, 18]: not affected

Clc1cc2c(cc1Cl)Oc1cc(Cl)c(Cl)cc1O2 [TCDD]
basal GFP expression ([9]; EL4 derived cells, not activated): not affected | activation induced GFP expression ([9]; activation with TPA/ionophore): did not have any effect | upregulation of expression of IFNγ (RT-PCR) [10]: had no effect | upregulation of expression of IL-2 (RT-PCR) [11]: had no effect | basal GFP expression [12]: did not affect the basal GFP expression

CO[C@H]1C[C@@H]2CC[C@@H](C)[C@@](O)(O2)C(=O)C(=O)N2CCCC[C@H]2C(=O)O[C@H]([C@H](C)C[C@@H]2CC[C@@H](O)[C@H](OC)C2)CC(=O)[C@H](C)/C=C(\C)[C@@H](O)[C@@H](OC)C(=O)[C@H](C)C[C@H](C)/C=C/C=C/C=C/1C [Rapamycin]
concentration which led to 10% cytotoxicity [3]: 10000 ng/mL

CCC[CH2][Sn]([CH2]CCC)([CH2]CCC)[O][Sn]([CH2]CCC)([CH2]CCC)[CH2]CCC [TBTO, Bis(tri-n-butyltin) oxide]
IL-2 expression, stabile EGFP clone [7, 20]: failed to show altered expression | IL-2 expression, stabile EGFP clone [7, 22]: statistically significant inhibition | IL-2 inhibition, stabile EGFP clone [7, 22]: 10% | IFN-γ expression, stabile EGFP clone [8, 20]: failed to show altered expression

[Cl][Hg][Cl] [mercuric chloride, Mercury (II) chloride]
IL-2 expression, stabile EGFP clone [7, 20]: exposure effects were not observed | IL-2 expression, stabile EGFP clone [7, 18]: not affected | IFN-γ expression, stabile EGFP clone [8, 20]: exposure effects were not observed | IFN-γ expression, stabile EGFP clone [8, 21]: apparently dose-dependent reduction

[Cl][Pt-2]([Cl])([Cl])[Cl].[K+].[K+] [K2PtCl4, Potassium tetrachloro-platinate (II)]
NO levels in supernatants [13]: elevated levels | GFP fluorescence under microscope [14]: didn′t show noticeable fluorescence | mRNA for GFP ([14]; 100 μM, stimulated for 6 h): upregulation of mRNA for GFP | IL-2 expression, stabile EGFP clone [7, 20]: exposure effects were not observed | IL-2 expression, stabile EGFP clone [7, 21]: dose-dependent reduction | IFN-γ expression, stabile EGFP clone [8, 20]: exposure effects were not observed | IFN-γ expression, stabile EGFP clone [8, 21]: dose-dependent reduction

CCOC(=O)c1ccc(N)cc1 [benzocaine, Ethyl-4-Aminobenzoate]
actin clone fluorescence vs control [4, 16]: significantly increased | IL-2 clone fluorescence vs control [5, 23]: statistically significant inhibitory effect | IL-2 clone fluorescence vs control [5, 15]: statistically significant inhibitory effect | IL-10 clone fluorescence vs control [6, 23]: statistically significant inhibitory effect | IL-10 clone fluorescence vs control [6, 15]: statistically significant inhibitory effect | IFN-γ clone fluorescence vs control [2, 15]: inhibited | toxicity (LDH-assay) [3]: did not find benzocaine to be toxic

O=C1CCC(N2C(=O)c3ccccc3C2=O)C(=O)N1 (racemic) [thalidomide, (+/−)—Thalidomide]
actin clone, inhibition [4, 19]: 5-10% | actin clone fluorescence vs control [4, 21]: inhibited | IL-2 clone fluorescence vs control [5, 20]: did not show any significant changes | IL-2 clone fluorescence vs control [5, 17]: only actin inhibited | IL-4 clone fluorescence vs control [1, 20]: did not show any significant changes | IL-4 clone fluorescence vs control [1, 17]: only actin inhibited | IL-10 clone fluorescence vs control [6, 20]: did not show any significant changes | IL-10 clone fluorescence vs control [6, 17]: only actin inhibited | IFN-γ clone fluorescence vs control [2, 20]: did not show any significant changes | IFN-γ clone fluorescence vs control [2, 17]: only actin inhibited | IL-2 inhibition, stabile EGFP clone [7, 19]: 10% | IL-2 expression, stabile EGFP clone [7, 22]: did not show detectable effects | IL-2 expression, stabile EGFP clone [7, 24]: did not show detectable effects | IL-2 expression, stabile EGFP clone [7, 21]: dose-dependent inhibition | IFN-γ expression, stabile EGFP clone [8, 22]: did not show detectable effects | IFN-γ expression, stabile EGFP clone [8, 24]: did not show detectable effects | IFN-γ expression, stabile EGFP clone [8, 21]: dose-dependent inhibition | toxicity (LDH-assay) [3]: did not find thalidomide to be toxic

N=C(N)c1ccc(OCCCCCOc2ccc(C(=N)N)cc2)cc1 [pentamidine, Pentamidine isethionate salt]
actin clone fluorescence vs control [4, 25]: increase | actin clone fluorescence vs control [4, 16]: increase | actin clone fluorescence vs control [4, 17]: not altered | IL-2 clone fluorescence vs control [5, 23]: suppressed | IL-2 clone fluorescence vs control [5, 15]: suppressed | IL-4 clone fluorescence vs control [1, 23]: suppressed | IL-4 clone fluorescence vs control [1, 15]: suppressed | IL-10 clone fluorescence vs control [6, 25]: clearly inhibited | IL-10 clone fluorescence vs control [6, 16]: clearly inhibited | IL-10 clone fluorescence vs control [6, 23]: suppressed | IL-10 clone fluorescence vs control [6, 15]: suppressed | IFN-γ clone fluorescence vs control [2, 15]: suppressed | concentration which led to 10% cytotoxicity [3]: 30000 ng/mL
